Reference: ChEMBL document CHEMBL1201862, “PubChem BioAssay data set” (2004)
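In this assay, cells in 96-well plates receive the compound at five concentrations for 48 hours. Endpoints are linearly interpolated between the surrounding concentrations. GI50 = concentration required for 50% inhibition of growth.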 Active and inactive are the calls of the source. Rule as the data show it: active = GI50 up to about 1.1 µM and inactive = higher.

Assays:
Experiment in all cases: NCI tumour cell line growth inhibition, 48 h
MDA-MB-231 = test system: MDA-MB-231
SK-OV-3 = test system: SK-OV-3
U-251 = test system: U-251
ACHN = test system: ACHN
SF-268 = test system: SF-268
SW-620 = test system: SW-620
Hs-578T = test system: Hs-578T
A498 = test system: A498
TK-10 = test system: TK-10
KM12 = test system: KM12
NCI/ADR-RES = test system: NCI/ADR-RES
OVCAR-4 = test system: OVCAR-4
HT-29 = test system: HT-29
SNB-75 = test system: SNB-75
HOP-62 = test system: HOP-62
M14 = test system: M14
UACC-257 = test system: UACC-257
HOP-92 = test system: HOP-92
LOX IMVI = test system: LOX IMVI
COLO 205 = test system: COLO 205

| SMILES | GI50 (MDA-MB-231) | GI50 (SK-OV-3) | GI50 (U-251) | GI50 (ACHN) | GI50 (SF-268) | GI50 (SW-620) | GI50 (Hs-578T) | GI50 (A498) | GI50 (TK-10) | GI50 (KM12) | GI50 (NCI/ADR-RES) | GI50 (OVCAR-4) | GI50 (HT-29) | GI50 (SNB-75) | GI50 (HOP-62) | GI50 (M14) | GI50 (UACC-257) | GI50 (HOP-92) | GI50 (LOX IMVI) | GI50 (COLO 205) |
| --- | --- | --- | --- | --- | --- | --- | --- | --- | --- | --- | --- | --- | --- | --- | --- | --- | --- | --- | --- | --- |
| OC1NC2Nc3ccccc3NC2NC1O (stereo not given) | > 100 µM (inactive) | > 100 µM (inactive) | > 100 µM (inactive) | > 100 µM (inactive) | > 100 µM (inactive) | > 100 µM (inactive) | > 100 µM (inactive) | > 100 µM (inactive) | > 100 µM (inactive) | > 100 µM (inactive) | > 100 µM (inactive) | > 100 µM (inactive) | > 100 µM (inactive) | > 100 µM (inactive) | > 100 µM (inactive) | > 100 µM (inactive) | > 100 µM (inactive) | 30.8 µM (inactive) | > 100 µM (inactive) | > 100 µM (inactive) |
| C/C(=C\c1ccccc1)C(=O)NCc1ccc(C(=O)NCCc2ccccc2)cc1 | > 43.2 µM (inactive) | 12.2 µM (inactive) | > 51.8 µM (inactive) | > 94.6 µM (inactive) | 4.37 µM (inactive) | > 100 µM (inactive) | 7.16 µM (inactive) | > 66.5 µM (inactive) | 41.9 µM (inactive) | > 100 µM (inactive) | > 39.9 µM (inactive) | > 100 µM (inactive) | 2.67 µM (inactive) | 3.95 µM (inactive) | 3 µM (inactive) | > 100 µM (inactive) | > 100 µM (inactive) | 18.4 µM (inactive) | > 100 µM (inactive) | > 100 µM (inactive) |
| Nc1ccc(C(=O)N/C(=C\c2cccc([N+](=O)[O-])c2)c2nc3c(O)nc(S)nc3[nH]2)cc1 | > 53 µM (inactive) | 22.8 µM (inactive) | 42.7 µM (inactive) | > 76.2 µM (inactive) | 25.9 µM (inactive) | > 100 µM (inactive) | 29.9 µM (inactive) | 65.8 µM (inactive) | > 79.4 µM (inactive) | > 100 µM (inactive) | > 100 µM (inactive) | > 100 µM (inactive) | > 100 µM (inactive) | 6.61 µM (inactive) | 17.2 µM (inactive) | > 100 µM (inactive) | > 100 µM (inactive) | 20.9 µM (inactive) | > 92.7 µM (inactive) | > 100 µM (inactive) |
| Cc1ccc(NC(=O)CC(=O)N2N=C(N(C)c3ccccc3)CC2c2ccccc2)cc1 (stereo not given) | > 100 µM (inactive) | > 100 µM (inactive) | > 100 µM (inactive) | > 100 µM (inactive) | > 100 µM (inactive) | > 100 µM (inactive) | > 100 µM (inactive) | > 100 µM (inactive) | > 100 µM (inactive) | > 100 µM (inactive) | > 100 µM (inactive) | 68.5 µM (inactive) | > 100 µM (inactive) | 25.4 µM (inactive) | > 100 µM (inactive) | > 100 µM (inactive) | > 100 µM (inactive) | > 100 µM (inactive) | > 100 µM (inactive) | > 100 µM (inactive) |
| c1nnc(NCNc2nncs2)s1 | 30.7 µM (inactive) | 23.7 µM (inactive) | 50 µM (inactive) | 29.4 µM (inactive) | > 100 µM (inactive) | 45.8 µM (inactive) | > 100 µM (inactive) | 4.16 µM (inactive) | 86.9 µM (inactive) | 50.1 µM (inactive) | > 100 µM (inactive) | 11.7 µM (inactive) | 19.1 µM (inactive) | 30 µM (inactive) | 46.5 µM (inactive) | 43.1 µM (inactive) | 47.8 µM (inactive) | > 100 µM (inactive) | 32.7 µM (inactive) | 56.1 µM (inactive) |
| COc1cccc2ccc3c(c12)C(=O)OC31CCc2c(C)cccc21 (stereo not given) | 36.1 µM (inactive) | > 46.5 µM (inactive) | 23.2 µM (inactive) | 8.04 µM (inactive) | 30.3 µM (inactive) | 12.1 µM (inactive) | 38.5 µM (inactive) | 7.41 µM (inactive) | 23.1 µM (inactive) | 23.7 µM (inactive) | 13.4 µM (inactive) | 15.2 µM (inactive) | 11.8 µM (inactive) | 13.4 µM (inactive) | 18.5 µM (inactive) | 19.9 µM (inactive) | 23.4 µM (inactive) | 11.2 µM (inactive) | 14.2 µM (inactive) | 22.6 µM (inactive) |
| N#Cc1sc2c(c1OC(=O)c1ccc(C(F)(F)F)cc1)c(=O)n(-c1ccccc1)c(=S)n2-c1ccccc1 | 31.3 µM (inactive) | 38.5 µM (inactive) | 20.7 µM (inactive) | 26.2 µM (inactive) | 33 µM (inactive) | 40.2 µM (inactive) | 26.2 µM (inactive) | 26.7 µM (inactive) | 27.6 µM (inactive) | 27.7 µM (inactive) | 27.9 µM (inactive) | 33.8 µM (inactive) | 25.2 µM (inactive) | 27.4 µM (inactive) | 31.1 µM (inactive) | 24.2 µM (inactive) | 42.7 µM (inactive) | 19.7 µM (inactive) | 24.5 µM (inactive) | 21.6 µM (inactive) |
| C/C(=N\Nc1nc2ccccc2n1C)c1ccncn1 | 0.0389 µM (active) | 0.182 µM (active) | 0.0904 µM (active) | 0.0266 µM (active) | 0.0762 µM (active) | < 0.018 µM (active) | 3.1 µM (inactive) | 0.14 µM (active) | 1.52 µM (inactive) | 0.265 µM (active) | 0.0395 µM (active) | 0.17 µM (active) | < 0.0259 µM (active) | 1.87 µM (inactive) | 5.38 µM (inactive) | 0.0408 µM (active) | 0.0382 µM (active) | 0.129 µM (active) | 0.0845 µM (active) | < 0.01 µM (active) |
| CC(C)(C)c1c(C(C)(C)C)c(=O)c1=O | > 100 µM (inactive) | > 100 µM (inactive) | > 100 µM (inactive) | > 100 µM (inactive) | > 100 µM (inactive) | > 100 µM (inactive) | > 100 µM (inactive) | 86.1 µM (inactive) | > 100 µM (inactive) | > 100 µM (inactive) | > 100 µM (inactive) | > 100 µM (inactive) | > 100 µM (inactive) | > 100 µM (inactive) | > 100 µM (inactive) | > 100 µM (inactive) | > 100 µM (inactive) | > 100 µM (inactive) | > 100 µM (inactive) | > 100 µM (inactive) |
| COc1cc2c(/C=C3/C(=O)Nc4ccc(Cl)cc43)c(Cl)[nH]c2cc1C | 0.74 µM (active) | 0.284 µM (active) | 0.394 µM (active) | 0.587 µM (active) | 1.03 µM (active) | 0.596 µM (active) | 0.327 µM (active) | 10.6 µM (inactive) | 1.05 µM (active) | 0.416 µM (active) | 0.662 µM (active) | 0.818 µM (active) | 0.544 µM (active) | 0.215 µM (active) | 0.439 µM (active) | 0.962 µM (active) | 0.553 µM (active) | 10.6 µM (inactive) | 0.738 µM (active) | 0.352 µM (active) |
